“And” between values parts separate entries of the source, which are not always exact repeats. Equal entries are not always repeated.
Experiments:
AaegOR8 = target: T1, AaegOR8 (Aedes aegypti, UniProt Q16MN0); assay: Two-electrode voltage clamp of Xenopus laevis oocytes expressing AaegOR8/Orco (blends, unitary compounds, concentration-response); type: cell-based; settings: for Raw data (Responses in nA) Oocyte 1 / Raw data (Responses in nA) Oocyte 2 / Raw data (Responses in nA) Oocyte 3 / Raw data (Responses in nA) Oocyte 4 / Raw data (Responses in nA) Oocyte 5 / Raw data (Responses in nA) Oocyte 6 / Raw data (Responses in nA) Oocyte 7 / Raw data (Responses in nA) Oocyte 8: Alcohols 2 unitary compounds
T1 sequence (Q16MN0 32-422): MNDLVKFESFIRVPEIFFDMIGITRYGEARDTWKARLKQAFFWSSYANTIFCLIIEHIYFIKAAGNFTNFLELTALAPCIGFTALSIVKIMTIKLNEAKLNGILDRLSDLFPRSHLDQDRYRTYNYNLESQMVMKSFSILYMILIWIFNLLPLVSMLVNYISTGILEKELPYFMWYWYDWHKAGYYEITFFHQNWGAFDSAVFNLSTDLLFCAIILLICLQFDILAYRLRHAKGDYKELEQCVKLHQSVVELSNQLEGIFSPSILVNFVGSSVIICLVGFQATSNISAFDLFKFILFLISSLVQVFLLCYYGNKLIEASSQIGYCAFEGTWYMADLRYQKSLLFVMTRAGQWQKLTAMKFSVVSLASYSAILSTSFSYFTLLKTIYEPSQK
T1 sequence (Q178U6 1-478 partner): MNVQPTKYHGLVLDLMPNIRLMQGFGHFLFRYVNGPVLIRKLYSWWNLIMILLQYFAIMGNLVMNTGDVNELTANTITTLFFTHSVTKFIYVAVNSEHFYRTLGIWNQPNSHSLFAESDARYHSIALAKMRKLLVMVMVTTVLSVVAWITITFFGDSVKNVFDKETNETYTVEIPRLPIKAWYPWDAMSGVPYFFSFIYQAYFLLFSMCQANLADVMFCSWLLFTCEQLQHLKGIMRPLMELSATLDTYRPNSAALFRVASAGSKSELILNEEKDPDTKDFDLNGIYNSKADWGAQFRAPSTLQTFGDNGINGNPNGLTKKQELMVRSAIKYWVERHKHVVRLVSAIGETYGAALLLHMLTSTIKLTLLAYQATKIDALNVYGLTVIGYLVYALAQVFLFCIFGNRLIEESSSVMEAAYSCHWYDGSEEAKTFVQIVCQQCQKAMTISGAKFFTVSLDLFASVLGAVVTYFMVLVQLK
Excerpt: (§1) The coding regions of ten AaegOR genes of interest (S3 File) and AaegOrco were synthesized by Twist Bioscience (San Francisco, CA, USA) and cloned into the pENTR plasmid. The Gateway LR directional cloning system (Invitrogen Corp., Carlsbad, CA, USA) was utilized to subclone AaegOR coding regions into the pSP64t-RFA oocyte expression plasmid. Plasmids were purified using the GeneJet Plasmid Miniprep Kit (ThermoFisher Scientific, Waltham, MA, USA). Purified plasmids were sequenced in both directions to confirm coding regions.
(§2) Chemical compounds (S6 File) used in the deorphanization of AaegORs were purchased from Acros Organics (Morris, NJ, USA), Alfa Aesar (Ward Hill, MA, USA), and ThermoFisher Scientific (Waltham, MA, USA) at the highest purity available. Compounds were stored as 1M stocks in 100% DMSO. Serial dilutions of each compound were prepared in 10% DMSO and blended by chemical class.
(§3) pSP64t-RFA: AaegOR clones were linearized using Xbal, and cRNAs were synthesized using the mMESSAGE mMACHINE ® SP6 kit (Life Technologies, Carlsbad, CA, USA). Xenopus laevis stage V-VII oocytes purchased from Xenopus1 (Dexter, MI, USA) were stored at 18°C in Incubation medium (ND96 96 with 5% dialyzed horse serum, 50μg/mL gentamycin, 100μg/mL streptomycin, 100μg/mL penicillin, and 550μg/mL sodium pyruvate). 30nL of cRNA was injected into multiple oocytes using a microinjection syringe pump (World Precision Instruments, Sarasota, FL, USA) maintained at 18°C for 48–72 hrs. Odorant blends were perfused across individual oocytes for 10–15 seconds, held at a resting membrane potential of -80 mV using an OC-725C oocyte clamp (Warner Instruments, LLC, Hamden, CT, USA). Induced currents were measured indirectly using the two-electrode voltage clamp technique (TEVC). Following each stimulus, currents were allowed to return to baseline before further stimulation. Data was captured using the Digidata 1550 B digitizer and PClamp10 software (Molecular Devices, San Jose, CA, USA). Concentration-response curves were generated by perfusing unitary odorants over oocytes at increasing concentrations from [10^-3M] to [10^-9M]. Data were analyzed using GraphPad Prism 8 (GraphPad Software Inc., La Jolla, CA, USA). At least two biological replicates were conducted at each concentration and for each compound. Data for at least seven oocytes responding to each compound was analyzed (S7 File).

AaegOR15 = target: T2, AaegOR15 (Aedes aegypti, UniProt A0A6B9QIR2); assay: Two-electrode voltage clamp of Xenopus laevis oocytes expressing AaegOR15/Orco (blends, unitary compounds, concentration-response); type: cell-based; settings: for Raw data (Responses in nA), compounds of blend Alcohols 2: individual oocytes 1-10 (replicates); for response of OR15 to unitary compounds: individual compounds; for Raw Data, concentration-response: no unit printed in this section (nA in the sections above); for Raw data (Responses in nA), phenethyl propionate versus 1-hexanol: separate set of 7 oocytes (replicates)
T2 sequence (A0A6B9QIR2 1-390): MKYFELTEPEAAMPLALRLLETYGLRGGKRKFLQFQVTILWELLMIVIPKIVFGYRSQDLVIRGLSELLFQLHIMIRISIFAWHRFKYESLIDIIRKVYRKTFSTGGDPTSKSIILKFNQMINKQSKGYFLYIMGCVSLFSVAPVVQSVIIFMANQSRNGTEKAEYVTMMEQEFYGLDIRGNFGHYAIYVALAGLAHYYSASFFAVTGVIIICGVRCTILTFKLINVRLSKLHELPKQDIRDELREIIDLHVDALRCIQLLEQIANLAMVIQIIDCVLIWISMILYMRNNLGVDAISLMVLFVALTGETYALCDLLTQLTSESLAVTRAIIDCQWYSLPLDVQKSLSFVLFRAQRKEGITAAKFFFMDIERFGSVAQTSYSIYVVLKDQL
T2 sequence (Q178U6 1-478 partner): T1 sequence (Q178U6 1-478 partner)
Excerpt: as §1, §2, §3

[1] = unitary compounds of Alcohols 2
[2] = AaegOR15/Orco expressing oocytes, TEVC

| Structure (SMILES) | Raw data (Responses in nA) Oocyte 1 (AaegOR8) [nA] | Raw data (Responses in nA) Oocyte 2 (AaegOR8) [nA] | Raw data (Responses in nA) Oocyte 3 (AaegOR8) [nA] | Raw data (Responses in nA) Oocyte 4 (AaegOR8) [nA] | Raw data (Responses in nA) Oocyte 5 (AaegOR8) [nA] | Raw data (Responses in nA) Oocyte 6 (AaegOR8) [nA] | Raw data (Responses in nA) Oocyte 7 (AaegOR8) [nA] | Raw data (Responses in nA) Oocyte 8 (AaegOR8) [nA] | Raw data (Responses in nA), compounds of blend Alcohols 2 (AaegOR15; [1]) | further results |
| --- | --- | --- | --- | --- | --- | --- | --- | --- | --- | --- |
| COc1ccccc1 [anisole] | 0.0 | 0.0 | 0.0 | 0.0 | 0.0 | 10.0 | 5.0 | 0.0 | 10.0 nA and 20.0 nA (2×) and 220.0 nA and 280.0 nA and 290.0 nA and 310.0 nA and 170.0 nA and 260.0 nA and 100.0 nA |  |
| CC/C=C\CCO [cis-3-hexen-1-ol] | 0.0 | 0.0 | 0.0 | 0.0 | 5.0 | 0.0 | 10.0 | 0.0 | 20.0 nA and 25.0 nA (2×) and 360.0 nA and 370.0 nA and 350.0 nA and 580.0 nA and 250.0 nA and 520.0 nA and 140.0 nA | response of OR15 to unitary compounds (AaegOR15; [2]): additional responses |
| OC1CCCCC1 [cyclohexanol] | 0.0 | 0.0 | 0.0 | 0.0 | 0.0 | 0.0 | 0.0 | 0.0 | 5.0 nA and 10.0 nA and 30.0 nA and 55.0 nA (2×) and 0.0 nA and 40.0 nA (2×) and 80.0 nA and 35.0 nA |  |
| CCCCCCO [1-hexanol] | 10.0 | 10.0 | 40.0 | 15.0 | 30.0 | 170.0 | 120.0 | 10.0 | 50.0 nA and 90.0 nA and 725.0 nA and 780.0 nA and 70.0 nA and 670.0 nA and 1070.0 nA and 580.0 nA and 740.0 nA and 275.0 nA | Raw Data, concentration-response (AaegOR15; 1e-7 M, individual oocytes 1-10): 60.0 (2×) and 50.0 (2×) and 70.0 and 55.0 and 40.0 and 75.0 and 15.0 and 35.0; Raw Data, concentration-response (AaegOR15; 5e-7 M, individual oocytes 1-10): 160.0 (2×) and 155.0 and 230.0 and 165.0 and 140.0 and 60.0; Raw Data, concentration-response (AaegOR15; 1e-6 M, individual oocytes 1-10): 180.0 and 350.0 and 220.0 (2×) and 365.0 and 90.0 and 160.0; Raw Data, concentration-response (AaegOR15; 5e-6 M, individual oocytes 1-10): 360.0 and 450.0 and 465.0 and 645.0 and 445.0 and 395.0 and 590.0 and 415.0 and 190.0 and 310.0; Raw Data, concentration-response (AaegOR15; 1e-5 M, individual oocytes 1-10): 410.0 and 480.0 and 510.0 and 730.0 and 495.0 and 435.0 and 655.0 and 450.0 and 360.0; Raw Data, concentration-response (AaegOR15; 5e-5 M, individual oocytes 1-10): 440.0 and 510.0 and 525.0 and 770.0 and 515.0 and 455.0 and 665.0 and 475.0 and 370.0; Raw Data, concentration-response (AaegOR15; 0.0001 M, individual oocytes 1-10): 330.0 and 470.0 and 400.0 and 665.0 and 440.0 and 350.0 and 460.0 and 370.0 and 200.0 and 280.0; EC50 (AaegOR15; AaegOR15/Orco expressing oocytes, TEVC, concentration-response of normalized current): ~1070 nM and 1070 nM; Raw data (Responses in nA), phenethyl propionate versus 1-hexanol (AaegOR15): 30.0 nA and 100.0 nA and 180.0 nA and 120.0 nA and 110.0 nA and 90.0 nA and 95.0 nA |
| C=CC(O)CCCCC (stereo not shown) [1-octen-3-ol] | 190.0 | 160.0 | 280.0 | 780.0 | 980.0 | 2200.0 | 2720.0 | 240.0 | 10.0 nA and 20.0 nA (2×) and 200.0 nA and 230.0 nA and 210.0 nA and 370.0 nA and 110.0 nA and 240.0 nA and 80.0 nA | EC50 (AaegOR8; AaegOR8/Orco expressing oocytes, TEVC, concentration-response of normalized current): 2140 nM |
| CCC(=O)OCCc1ccccc1 [phenethyl propionate] |  |  |  |  |  |  |  |  |  | response of OR15 to unitary compounds (AaegOR15; [2]): additional responses; Secondary Ligand (AaegOR15; AaegOR15, secondary ligand identified during the functional characterizations): phenethyl propionate; Normalized response, phenethyl propionate, Average (AaegOR15; average of 7 oocytes, relative to 1-hexanol): 56.0; Raw data (Responses in nA), phenethyl propionate versus 1-hexanol (AaegOR15): 10.0 nA and 100.0 nA and 90.0 nA and 70.0 nA (2×) and 40.0 nA (2×) |
| CCCCCC=O [hexanal] |  |  |  |  |  |  |  |  | 0.0 nA (2×) and 10.0 nA and 80.0 nA and 85.0 nA and 110.0 nA (2×) and 160.0 nA and 115.0 nA and 40.0 nA |  |
| C=CC(C)(O)CCC=C(C)C (racemic) [(+/-)-linalool] |  |  |  |  |  |  |  |  | 0.0 nA (2×) and 5.0 nA and 10.0 nA (4×) and 20.0 nA and 40.0 nA and 15.0 nA | Normalized response, compounds of blend Alcohols 2, Average (AaegOR15; unitary compounds of Alcohols 2, average of 10 oocytes, 1-hexanol = 100): 2.4; Normalized response, compounds of blend Alcohols 2 (AaegOR15; unitary compounds of Alcohols 2, individual oocytes 1-10, normalized to the largest response of each oocyte (1-hexanol = 100)): 0.0 (2×) and 1.4 and 1.3 and 1.5 and 1.9 and 1.7 and 5.4 and 5.5 and 5.6 |

Source: publication PMC11073699, “Odorant receptors for floral- and plant-derived volatiles in the yellow fever mosquito, Aedes aegypti (Diptera: Culicidae)” (PLOS ONE, 2024)
